Measurements from US5591741A, “Fungicidal spiroheterocyclic derivatives” (American Cyanamid Company, priority 1993, dated 1997).

Legend:
[1] = system: Pseudocercosporella herpotrichoides; experiment: Activity against wheat eyespot in-vitro (PHI); type: cell-based; conditions: 10 ppm, 10 days, 20° C., mycelial growth
Method in brief: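 Mycelial growth was scored after 10 days at 20 °C against untreated or diluent controls. The broth was half-strength potato dextrose, holding 10 ppm test compound (from acetone) and 5×10^4 fragments/ml of the eyespot fungus.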

Botrytis cinerea = experiment: Direct protectant activity against broad bean grey mould (BCB); type: in vivo; conditions: direct protectant foliar spray, 600 ppm, 4 days
Method in brief: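 Protectant foliar test: lesion coverage assessed 4 days after inoculation and rated relative to untreated or diluent-sprayed plants. Compound applied at 600 ppm to cv The Sutton leaves 24 h before 10^6 conidia/ml suspension; incubation at 22 °C in high humidity.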

Plasmopara viticola = experiment: Antisporulant activity against vine downy mildew (PVA); type: in vivo; conditions: vine leaves, antisporulant foliar spray, 600 ppm, 750 l/ha
Method in brief: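 Cabernet Sauvignon vines (~8 cm) inoculated on lower leaf surfaces with 5×10^4 zoosporangia/ml, held 24 h at 21° C high humidity then 24 h glasshouse. Infected leaves sprayed underside with 600 ppm compound in 1:1 water/acetone, 0.04% Tween 20, 750 l/ha; 96 h glasshouse, 24 h humidity. Sporulating leaf area rated versus control.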

Phytophthora infestans = type: in vivo; conditions: tomato, direct protectant foliar spray
Alternaria solani = experiment: Activity against tomato early blight (AS); type: in vivo; conditions: Table VI; tomato seedlings, contact prophylactic foliar spray, 4 days
Method in brief: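 Plants were challenged with A. solani conidia (10^4 spores/ml) 24 h after a protective foliar spray of compound in 50:50 acetone/water plus 0.04% Tween 20. Held humid at 21° C for 4 days, then percent leaf area with lesions was scored as a rating relative to controls.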

Venturia inaequalis = experiment: Activity against apple scab in-vitro (VII); type: cell-based; conditions: 10 ppm, 10 days, 20° C., mycelial growth
Method in brief: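 V. inaequalis propagules (5×10^4/ml, malt agar-grown) were exposed in half-strength PDB to 10 ppm final test compound delivered in acetone. Growth was scored after incubation for 10 days at 20° C, as a rating relative to untreated or diluent-sprayed controls.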

[2] = system: Erysiphe graminis f.sp. hordei; experiment: Direct protectant activity against barley powdery mildew (EGP); type: in vivo; conditions: direct protectant foliar spray, 8 days
Method in brief: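 Rating reflects percentage of leaf area with sporulation compared with untreated or diluent-sprayed controls. Protectant spray was applied to single-leaf barley (cv Golden Promise) 24 h before conidia inoculation. Plants were kept at 18 °C and 40% RH throughout, with 8 days of disease development.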

Leptosphaeria nodorum = experiment: Activity against wheat leafspot (LN); type: in vivo; conditions: direct therapeutic foliar spray, 600 ppm, 6-8 days
Method in brief: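 Therapeutic foliar spray: compound at 600 ppm applied to single-leaf wheat (cv Norman) 24 h after inoculation with 1.5×10^6 conidia/ml. Disease control scored after 6-8 days at 22° C and 70% humidity as lesions per leaf versus untreated or diluent-sprayed controls.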

Rhizoctonia solani = experiment: Activity against Rhizoctonia in-vitro (RSI); type: cell-based; conditions: 10 ppm, 10 days, 20° C., mycelial growth
Method in brief: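 Compound at a final 10 ppm (acetone vehicle) in half-strength PDB, inoculated with 5×10^4 fragments/ml of shaken-culture R. solani mycelium. After incubation at 20° C for 10 days, growth scored as a rating versus untreated or diluent-treated controls.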

[3] = system: Erysiphe graminis f.sp. hordei; experiment: Activity against barley powdery mildew, direct therapeutic (EGT); type: in vivo; conditions: direct therapeutic foliar spray, 600 ppm, up to 7 days
Method in brief: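 A curative spray at 600 ppm was applied to single-leaf Golden Promise barley inoculated with powdery mildew conidia the previous day. After up to 7 days at 18 °C and 40% humidity, disease control was rated from percent leaf area sporulating relative to untreated or diluent-sprayed controls.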

Pyricularia oryzae = type: in vivo; conditions: rice seedlings, direct therapeutic foliar spray, 600 ppm, 4-5 days

CCCCCCCCCCNC1COC2(CCC(C(C)(C)C)CC2)C1 (centres unmarked) [Compound 42]
disease control rating PHI [1]: 1 (about 50-80% disease control)
disease control rating BCB (Botrytis cinerea): 0 (less than 50% disease control)
disease control rating PVA (Plasmopara viticola): 0 (less than 50% disease control)
disease control rating PIP (Phytophthora infestans): 0 (less than 50% disease control)
disease control rating AS (Alternaria solani): 0 (less than 50% disease control)
disease control rating VII (Venturia inaequalis): 2 (greater than 80% disease control)
disease control rating EGP [2]: 2 (greater than 80% disease control)
disease control rating LN (Leptosphaeria nodorum): 0 (less than 50% disease control)
disease control rating RSI (Rhizoctonia solani): 0 (less than 50% disease control)
disease control rating EGT [3]: 2 (greater than 80% disease control)
disease control rating PO (Pyricularia oryzae): 0 (less than 50% disease control)

CC(C)(C)C1CCC2(CC1)CC(N1CCCCC1)CO2 (centres unmarked) [Compound 10]
disease control rating PHI [1]: 1 (about 50-80% disease control)
disease control rating BCB (Botrytis cinerea): 2 (greater than 80% disease control)
disease control rating PVA (Plasmopara viticola): 0 (less than 50% disease control)
disease control rating PIP (Phytophthora infestans): 0 (less than 50% disease control)
disease control rating AS (Alternaria solani): 0 (less than 50% disease control)
disease control rating VII (Venturia inaequalis): 1 (about 50-80% disease control)
disease control rating EGP [2]: 2 (greater than 80% disease control)
disease control rating LN (Leptosphaeria nodorum): 1 (about 50-80% disease control)
disease control rating RSI (Rhizoctonia solani): 0 (less than 50% disease control)
disease control rating EGT [3]: 2 (greater than 80% disease control)
disease control rating PO (Pyricularia oryzae): 0 (less than 50% disease control)

CCCCN(CCCC)C1COC2(CCC(C(C)(C)C)CC2)C1 (centres unmarked) [Compound 12]
disease control rating PHI [1]: 0 (less than 50% disease control)
disease control rating BCB (Botrytis cinerea): 2 (greater than 80% disease control)
disease control rating PVA (Plasmopara viticola): 0 (less than 50% disease control)
disease control rating PIP (Phytophthora infestans): 0 (less than 50% disease control)
disease control rating AS (Alternaria solani): 0 (less than 50% disease control)
disease control rating VII (Venturia inaequalis): 2 (greater than 80% disease control)
disease control rating EGP [2]: 2 (greater than 80% disease control)
disease control rating LN (Leptosphaeria nodorum): 0 (less than 50% disease control)
disease control rating RSI (Rhizoctonia solani): 0 (less than 50% disease control)
disease control rating EGT [3]: 2 (greater than 80% disease control)
disease control rating PO (Pyricularia oryzae): 0 (less than 50% disease control)

CCCCCCCCCCCCNC1COC2(CCC(C(C)(C)C)CC2)C1 (centres unmarked) [Compound 43]
disease control rating PHI [1]: 0 (less than 50% disease control)
disease control rating BCB (Botrytis cinerea): 0 (less than 50% disease control)
disease control rating PVA (Plasmopara viticola): 0 (less than 50% disease control)
disease control rating PIP (Phytophthora infestans): 0 (less than 50% disease control)
disease control rating AS (Alternaria solani): 0 (less than 50% disease control)
disease control rating VII (Venturia inaequalis): 2 (greater than 80% disease control)
disease control rating EGP [2]: 2 (greater than 80% disease control)
disease control rating LN (Leptosphaeria nodorum): 2 (greater than 80% disease control)
disease control rating RSI (Rhizoctonia solani): 0 (less than 50% disease control)
disease control rating EGT [3]: 2 (greater than 80% disease control)
disease control rating PO (Pyricularia oryzae): 0 (less than 50% disease control)

CC1CC(C)CN(C2COC3(CCC(C(C)(C)C)CC3)C2)C1 (centres unmarked) [Compound 15]
disease control rating PHI [1]: 0 (less than 50% disease control)
disease control rating BCB (Botrytis cinerea): 0 (less than 50% disease control)
disease control rating PVA (Plasmopara viticola): 0 (less than 50% disease control)
disease control rating PIP (Phytophthora infestans): 0 (less than 50% disease control)
disease control rating AS (Alternaria solani): 0 (less than 50% disease control)
disease control rating VII (Venturia inaequalis): 2 (greater than 80% disease control)
disease control rating EGP [2]: 2 (greater than 80% disease control)
disease control rating LN (Leptosphaeria nodorum): 0 (less than 50% disease control)
disease control rating RSI (Rhizoctonia solani): 0 (less than 50% disease control)
disease control rating EGT [3]: 2 (greater than 80% disease control)
disease control rating PO (Pyricularia oryzae): 0 (less than 50% disease control)

CC1CCN(C2COC3(CCC(C(C)(C)C)CC3)C2)CC1 (centres unmarked) [Compound 19]
disease control rating PHI [1]: 0 (less than 50% disease control)
disease control rating BCB (Botrytis cinerea): 0 (less than 50% disease control)
disease control rating PVA (Plasmopara viticola): 0 (less than 50% disease control)
disease control rating PIP (Phytophthora infestans): 0 (less than 50% disease control)
disease control rating AS (Alternaria solani): 0 (less than 50% disease control)
disease control rating VII (Venturia inaequalis): 1 (about 50-80% disease control)
disease control rating EGP [2]: 2 (greater than 80% disease control)
disease control rating LN (Leptosphaeria nodorum): 1 (about 50-80% disease control)
disease control rating RSI (Rhizoctonia solani): 0 (less than 50% disease control)
disease control rating EGT [3]: 2 (greater than 80% disease control)
disease control rating PO (Pyricularia oryzae): 0 (less than 50% disease control)

CC(C)(C)C1CCC2(CC1)CC(NC1CCCCC1)CO2 (centres unmarked) [Compound 16]
disease control rating PHI [1]: 0 (less than 50% disease control)
disease control rating BCB (Botrytis cinerea): 1 (about 50-80% disease control)
disease control rating PVA (Plasmopara viticola): 0 (less than 50% disease control)
disease control rating PIP (Phytophthora infestans): 0 (less than 50% disease control)
disease control rating AS (Alternaria solani): 2 (greater than 80% disease control)
disease control rating VII (Venturia inaequalis): 2 (greater than 80% disease control)
disease control rating EGP [2]: 2 (greater than 80% disease control)
disease control rating LN (Leptosphaeria nodorum): 1 (about 50-80% disease control)
disease control rating RSI (Rhizoctonia solani): 0 (less than 50% disease control)
disease control rating EGT [3]: 2 (greater than 80% disease control)
disease control rating PO (Pyricularia oryzae): 0 (less than 50% disease control)

CC(C)(C)C1CCC2(CC1)CC(NC1CCCCCC1)CO2 (centres unmarked) [Compound 104]
disease control rating PHI [1]: 0 (less than 50% disease control)
disease control rating BCB (Botrytis cinerea): 0 (less than 50% disease control)
disease control rating PVA (Plasmopara viticola): 0 (less than 50% disease control)
disease control rating PIP (Phytophthora infestans): 2 (greater than 80% disease control)
disease control rating AS (Alternaria solani): 0 (less than 50% disease control)
disease control rating VII (Venturia inaequalis): 1 (about 50-80% disease control)
disease control rating EGP [2]: 2 (greater than 80% disease control)
disease control rating LN (Leptosphaeria nodorum): 1 (about 50-80% disease control)
disease control rating RSI (Rhizoctonia solani): 0 (less than 50% disease control)
disease control rating EGT [3]: 2 (greater than 80% disease control)
disease control rating PO (Pyricularia oryzae): 0 (less than 50% disease control)

CCCCCCN(C)C1COC2(CCC(c3ccccc3)CC2)C1 (centres unmarked) [Compound 61]
disease control rating PHI [1]: 2 (greater than 80% disease control)
disease control rating BCB (Botrytis cinerea): 0 (less than 50% disease control)
disease control rating PVA (Plasmopara viticola): 0 (less than 50% disease control)
disease control rating PIP (Phytophthora infestans): 0 (less than 50% disease control)
disease control rating AS (Alternaria solani): 0 (less than 50% disease control)
disease control rating VII (Venturia inaequalis): 1 (about 50-80% disease control)
disease control rating EGP [2]: 2 (greater than 80% disease control)
disease control rating LN (Leptosphaeria nodorum): 1 (about 50-80% disease control)
disease control rating RSI (Rhizoctonia solani): 0 (less than 50% disease control)
disease control rating EGT [3]: 2 (greater than 80% disease control)
disease control rating PO (Pyricularia oryzae): 0 (less than 50% disease control)

CC(C)(C)CNC1COC2(CCC(C(C)(C)C)CC2)C1 (centres unmarked) [Compound 134]
disease control rating PHI [1]: 0 (less than 50% disease control)
disease control rating BCB (Botrytis cinerea): 0 (less than 50% disease control)
disease control rating PVA (Plasmopara viticola): 0 (less than 50% disease control)
disease control rating PIP (Phytophthora infestans): 0 (less than 50% disease control)
disease control rating AS (Alternaria solani): 0 (less than 50% disease control)
disease control rating VII (Venturia inaequalis): 0 (less than 50% disease control)
disease control rating EGP [2]: 2 (greater than 80% disease control)
disease control rating LN (Leptosphaeria nodorum): 0 (less than 50% disease control)
disease control rating RSI (Rhizoctonia solani): 0 (less than 50% disease control)
disease control rating EGT [3]: 2 (greater than 80% disease control)
disease control rating PO (Pyricularia oryzae): 0 (less than 50% disease control)
